Consider 91 molecules from PubChem BioAssay AID602235 (The Scripps Research Institute Molecular Screening Center, 2012).

Calls of active or inactive are those of the source. The rule behind the calls is not given here. Some results are limits rather than exact numbers.

In this experiment the target is Nuclear receptor coactivator 1 (Homo sapiens) (UniProt Q15788). Put plainly: inhibition of NCOA1 transcriptional coactivation in cells – cell-based, luciferase reporter, luminescence, dose response (AID 602235).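 Note: cells transfected with pGL4.31 reporter plus pBIND-SRC1 vector; potency is for inhibitors that lower SRC1 reporter luminescence.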 The note with it: cell-based SRC1 luciferase reporter.
Chain of Nuclear receptor coactivator 1 (Homo sapiens) (Q15788 whole entry, looked up): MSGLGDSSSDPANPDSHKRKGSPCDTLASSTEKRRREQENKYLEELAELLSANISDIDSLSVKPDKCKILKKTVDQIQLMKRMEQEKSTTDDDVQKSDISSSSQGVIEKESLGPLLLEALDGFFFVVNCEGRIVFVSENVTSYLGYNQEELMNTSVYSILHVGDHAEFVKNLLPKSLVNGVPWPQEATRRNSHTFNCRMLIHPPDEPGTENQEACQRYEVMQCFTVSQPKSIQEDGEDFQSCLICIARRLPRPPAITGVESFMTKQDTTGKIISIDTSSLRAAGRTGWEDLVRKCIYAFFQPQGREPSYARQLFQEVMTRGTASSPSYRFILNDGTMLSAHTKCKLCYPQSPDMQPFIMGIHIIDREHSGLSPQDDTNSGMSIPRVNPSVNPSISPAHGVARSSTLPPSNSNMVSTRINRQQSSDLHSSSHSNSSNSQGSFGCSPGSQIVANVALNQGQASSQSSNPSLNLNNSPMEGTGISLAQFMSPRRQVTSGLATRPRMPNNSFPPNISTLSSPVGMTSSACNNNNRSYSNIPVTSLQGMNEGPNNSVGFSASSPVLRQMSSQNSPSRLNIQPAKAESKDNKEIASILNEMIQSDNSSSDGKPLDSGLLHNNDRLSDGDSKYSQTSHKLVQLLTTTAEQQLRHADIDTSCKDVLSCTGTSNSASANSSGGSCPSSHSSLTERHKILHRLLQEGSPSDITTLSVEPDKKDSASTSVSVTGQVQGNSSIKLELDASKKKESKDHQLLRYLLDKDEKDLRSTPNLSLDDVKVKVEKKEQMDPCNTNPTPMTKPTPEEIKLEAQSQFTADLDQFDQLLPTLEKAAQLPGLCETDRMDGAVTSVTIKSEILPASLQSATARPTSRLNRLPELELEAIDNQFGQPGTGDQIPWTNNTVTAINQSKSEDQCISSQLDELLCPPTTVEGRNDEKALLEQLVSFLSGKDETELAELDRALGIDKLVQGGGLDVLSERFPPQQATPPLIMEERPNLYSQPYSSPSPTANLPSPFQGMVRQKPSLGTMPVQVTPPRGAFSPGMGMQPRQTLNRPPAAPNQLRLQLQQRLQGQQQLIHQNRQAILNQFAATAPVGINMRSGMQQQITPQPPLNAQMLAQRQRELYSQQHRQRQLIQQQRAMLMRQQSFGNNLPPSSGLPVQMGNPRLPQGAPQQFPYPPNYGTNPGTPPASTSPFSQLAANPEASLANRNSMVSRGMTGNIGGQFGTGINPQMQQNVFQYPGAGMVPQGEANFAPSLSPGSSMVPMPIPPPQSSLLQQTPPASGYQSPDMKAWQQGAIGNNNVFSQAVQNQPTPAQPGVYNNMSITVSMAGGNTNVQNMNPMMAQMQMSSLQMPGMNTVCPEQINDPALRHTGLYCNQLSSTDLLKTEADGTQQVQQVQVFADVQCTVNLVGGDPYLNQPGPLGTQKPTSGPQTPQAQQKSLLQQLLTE
As for `CC1(C)Cc2c(ccc3ccccc23)C(=O)N1`, the IC50 result is “inactive”.
The same measure for `Cc1nc(N2CCC(C(N)=O)CC2)c2c(-c3cccs3)csc2n1`: 8.59 µM; for `COc1ccc(Cc2nnc(SCc3ccc([N+](=O)[O-])cc3)o2)cc1`: “inactive”; for `Cc1c(/C(O)=C2/C(=O)C(=O)N(Cc3cccnc3)C2c2ccccn2)cnn1-c1ccccc1` (stereo unspecified): “inactive”.
Consider `COc1ccccc1N(C(=O)CCl)c1cn(C(C)=O)c2ccccc12`, for which the IC50 is > 35.9 µM (inactive).
On to `CC(C)(C)OC(=O)NCC(=O)Oc1cc2oc(=O)cc(-c3ccccc3)c2cc1Cl`, for which the IC50 result was “inactive”.
As to `O=C(N/N=C/c1ccccc1O)/C(=C/c1ccccc1)CCO`, the IC50 result is “inactive”.
The same measure for `COc1ccc(Nc2ncnc3ccc(C)cc23)cc1`: 3.97 µM.
Under `COc1ccccc1-c1cc2nc(-c3ccccc3)cc(N3CCN(C(=O)c4ccco4)CC3)n2n1` stands “inactive”; under `CCCCCOc1ccc(/C=C/c2c([N+](=O)[O-])c(=O)n(C)c(=O)n2C)cc1`, 9.08 µM.
The same measure for `CC(=O)NC(c1cc(Cl)c2cccnc2c1O)C1CC1` (stereo unspecified): “inactive”.
As for `CC1CCCCN1c1ncnc2ccccc12` (stereo unspecified), the IC50 is > 35.9 µM (inactive).
For `CN(CC(=O)Nc1ccc(Cl)c(C(F)(F)F)c1)C(=O)C1CC(=O)N(c2ccc3c(c2)OCCO3)C1` (stereo unspecified), the IC50 result was “inactive”.
Under `Cc1ccc(NC(=O)C2CCN(c3ncnc4sc(C)c(C)c34)CC2)cc1S(=O)(=O)N(C)C` stands “inactive”; under `O=C(CCCOc1ccc(Cl)cc1Cl)N/N=C/c1ccccc1O`, 6.73 µM.
The same measure for `CCOc1ccc(-c2noc(CCC(=O)O)n2)cc1`: > 35.9 µM (inactive); for `CCOc1ccc(/C=C2\SC(=S)N(CCCC(=O)NCCCN3CCOCC3)C2=O)cc1`: > 12 µM (inactive).
The same measure for `CC(=O)/C(N=Nc1ccc2c(c1)OCCO2)=C(\C)O`: > 35.9 µM (inactive); for `NS(=O)(=O)c1ccc(Nc2nc(-c3cccnc3)cs2)cc1`: > 35.8 µM (inactive).
Turning to `COC(CN(C(=O)CCl)C(C(=O)NC1CCCCC1)c1ccccc1C)OC` (stereo unspecified), the concentration for half-maximal inhibition (IC50) was 9.53 µM.
For `CCOc1cccc(/C=N/NC(=O)c2cc(C3CC3)[nH]n2)c1O`, the IC50 is 8.38 µM.
Under `Cc1ccc(S(=O)(=O)NC(CC(C)C)C(=O)NCC(c2ccco2)N2CCCCC2)cc1` (stereo unspecified) stands > 35.9 µM (inactive).
Under `O=C(O)c1ccccc1-c1c2cc(I)c(=O)c(I)c-2oc2c(I)c(O)c(I)cc12` stands > 35.9 µM (inactive); under `Cc1ccc(S(=O)(=O)Nc2c(NC3CCCCC3)c3ccccc3oc2=O)c(C)c1`, > 35.9 µM (inactive).
Under `CCn1c2ccccc2c2cnc(N=CN(C)C)c(C#N)c21` stands “inactive”; under `O=C(Nc1c(-c2ccccc2)[nH][nH]c1=O)c1cccc(C(F)(F)F)c1`, > 35.8 µM (inactive); under `COc1ccc2[nH]c(=O)c(CN(CCN3CCCC3)C(=O)Nc3ccccc3Cl)cc2c1`, > 35.8 µM (inactive).
For `Cc1ccc(NC(=O)CCC(=O)N/N=C/c2ccc(O)cc2O)cc1`, the IC50 entry is “inactive”.
As for `CCn1c(Oc2cccc(Br)c2)nc2c1c(=O)n(C)c(=O)n2C`, the IC50 entry was “inactive”.
With `COc1ccc(OC)c(/C=C2\NC(=O)NC2=O)c1`, the half-inhibitory concentration (IC50) is 7.42 µM.
Consider `COc1cccc(NC(=O)CN(C)CC(=O)Nc2ccc(Cl)cc2[N+](=O)[O-])c1`, for which the IC50 entry was “inactive”.
In the case of `Nc1ncccc1C(=O)OCC(=O)N1CCN(S(=O)(=O)c2ccc(Cl)cc2)CC1`, the IC50 result was “inactive”.
Under `Cc1ccc(/C=C2/SC(=S)N(CCCC(=O)Nc3ccc(O)cc3)C2=O)cc1` stands > 35.9 µM (inactive); under `CC(C)Cn1c(N)c(C(=O)COC(=O)c2cc3ccccc3cc2O)c(=O)n(C)c1=O`, > 35.9 µM (inactive); under `CCN(CC(=O)Nc1ccc(NC(C)=O)cc1)C(=O)C1(c2ccc(Cl)cc2)CCC1`, “inactive”.
The same measure for `O=[N+]([O-])c1cccc2c1ccc1ncccc12`: 9.46 µM.
Under `O=C(OC(c1ccccc1)c1nccc2ccccc12)c1ccccc1` (stereo unspecified) stands > 11.9 µM (inactive).
As for `CCCCN(CCCC)c1ncnc2nc[nH]c12`, the IC50 entry is “inactive”.
Under `CCc1nc(N)nc(N)c1-c1ccc(Cl)c([N+](=O)[O-])c1` stands 6.12 µM.
For the molecule `CC(=O)c1cccc(NC(=O)COc2cc3oc(=O)c(CC(C)O)c(C)c3cc2Cl)c1` (stereo unspecified), the IC50 was > 35.9 µM (inactive).
For `Cc1ccccc1C(=O)/C(C#N)=N/Nc1c(C)n(C)n(-c2ccccc2)c1=O`, the IC50 entry was “inactive”.
Regarding `Nc1ccc(-c2cc3ccccc3oc2=O)cc1`, the IC50 is 8.96 µM.
The same measure for `CCc1ccc(/C=C2\SC(=S)N(CCCC(=O)NCCCN3CCOCC3)C2=O)cc1`: 6.27 µM; for `CCn1c(Oc2ccc(F)cc2)nc2c1c(=O)n(C)c(=O)n2C`: > 12 µM (inactive); for `Cc1ccc(N=c2c([N+](=O)[O-])nn(-c3ccc4c(c3)OCCO4)n2O)cc1F`: “inactive”.
For the molecule `O=C(NC(NC(=S)N1CCOCC1)C(Cl)(Cl)Cl)c1ccc(Cl)cc1` (stereo unspecified), the IC50 was > 35.9 µM (inactive).
As to `COC(=O)N(NC(=O)C(O)(CCC(C)C)CCC(C)C)c1ccccc1`, the IC50 is > 35.9 µM (inactive).
The same measure for `CCCCCCCC[n+]1c(C)n(-c2ccccc2)c2ccc(NC(C)=O)cc21`: > 35.9 µM (inactive); for `CN(c1ccc(C(=O)N2CCN(Cc3ccc4c(c3)OCO4)CC2)cc1)S(=O)(=O)c1ccccc1`: > 35.9 µM (inactive).
Take `Cn1nc(C(F)(F)F)c(C#N)c1N1CCN(c2ccccc2)CC1`: the concentration for half-maximal inhibition (IC50) was 7.05 µM.
Take `Cc1nn(CC(=O)N2CCN(c3cccc(C(F)(F)F)c3)CC2)c(=O)c2cccn12`: the IC50 entry is “inactive”.
The same measure for `C=CCOc1ccc(/C=C2\SC(=S)N(CCC(=O)O)C2=O)cc1`: > 35.9 µM (inactive); for `COc1ccc(-c2cnc(N)nc2-c2ccc(OC)cc2O)cc1`: “inactive”.
The same measure for `O=C(N/N=C/c1coc2ccc(Cl)cc2c1=O)c1ccc(O)cc1`: > 35.9 µM (inactive).
The same measure for `CCCc1cc(C(=O)N(C)CC(=O)Nc2ccc(OCC)c(OCC)c2)sc1C`: > 35.9 µM (inactive).
For `Cc1c2ccncc2cc2c1[nH]c1ccccc12`, the IC50 is > 35.9 µM (inactive).
Under `COc1ccc(/C=C2/SC(=S)N(CCC(=O)O)C2=O)cc1` stands > 35.9 µM (inactive); under `OCCN(CCO)CC(O)COc1ccc(C23CC4CC(CC(C4)C2)C3)cc1` (stereo unspecified), > 35.9 µM (inactive); under `O=C(O)CN1C(=O)/C(=C\c2ccccc2OCc2ccc(Cl)cc2Cl)SC1=S`, “inactive”.
Consider `Cc1ccc2nc(C(F)(F)F)c(C#N)c(N)c2c1`, for which the IC50 entry was “inactive”.
The same measure for `O=C1NCCc2c1[nH]c1ccc([N+](=O)[O-])cc21`: “inactive”; for `COc1ccc(/C=C2\CC/C(=C\c3ccc(OC)c(OC)c3)C2=O)cc1OC`: > 35.9 µM (inactive); for `S=C(Nc1ccccc1)Nc1ccc(OCc2ccc(Cl)cc2Cl)cc1`: 4.26 µM.
Take `COc1cccc(/C=N/NC(=O)C(=O)Nc2ccccc2OC(F)(F)C(F)F)c1O`: the 50% inhibitory concentration (IC50) is 5.69 µM.
Turning to `COc1ccc(-n2cnc(N)c2C(=O)c2cccc([N+](=O)[O-])c2)cc1`, the IC50 result was “inactive”.
As to `COc1cc2c(cc1OC)C(NC(=O)C(F)(F)F)CNC2=O` (stereo unspecified), the 50% inhibitory concentration (IC50) is 6.97 µM.
As for `O=C(N/N=C/c1ccc(O)cc1O)/C(=C/c1ccccc1)CCO`, the IC50 result was “inactive”.
`O=C(Nc1nc(-c2ccccn2)cs1)c1cccc(-n2cnnn2)c1`: the IC50 entry was “inactive”.
In the case of `CN(C)C(=O)c1ccc(-c2n[nH]c(=O)c3ccccc23)cc1`, the IC50 result was “inactive”.
With `COc1ccc2c(C#N)c3ccccn3c2c1`, the IC50 entry is “inactive”.
`Cc1ccc(S(=O)(=O)N2[C@@H](c3ccc(C(C)(C)C)cc3)C(C(=O)O)=CC[C@H]2c2ccc(Cl)cc2)cc1`: the IC50 entry is “inactive”.
Turning to `O=C(CCl)NC(Cc1ccccc1)c1ccccc1` (stereo unspecified), the IC50 entry was “inactive”.
The same measure for `CC(NC(=O)COC(=O)c1cccs1)c1ccccc1` (stereo unspecified): > 35.9 µM (inactive); for `CCC(=O)c1ccc(Oc2nc3c(c(=O)n(C)c(=O)n3C)n2CC)cc1`: 7.62 µM; for `CCN(Cc1ccncc1)C(=O)CC1C(=O)NCCN1Cc1ccc(F)c(F)c1` (stereo unspecified): “inactive”.
In the case of `Fc1cccc(CSc2nnc3ccc(-c4ccncc4)nn23)c1`, the IC50 was > 35.8 µM (inactive).
Under `O=C(NC(=S)Nc1ccc(N2CCN(C(=O)c3ccccc3)CC2)cc1)c1cccs1` stands “inactive”.
The same measure for `COc1ccccc1CNC(=O)C(=O)NCCC1CCCCN1S(=O)(=O)c1ccc(C)cc1` (stereo unspecified): “inactive”; for `CC(C)(C)c1cc(C(=O)N/N=C/c2ccc(O)cc2)n(-c2ccccc2)n1`: > 35.9 µM (inactive).
As for `O=C(Nc1cccc2c1CCCC2)c1cc([N+](=O)[O-])ccc1Cl`, the IC50 was > 35.9 µM (inactive).
Under `O=C(COC(=O)c1ccc[nH]c1=O)Nc1ccc(N2CCCCC2)cc1` stands > 35.9 µM (inactive); under `CC(=O)c1cc2c(C)cc(=O)oc2cc1O`, > 35.9 µM (inactive); under `c1ccc(-c2csc3ncnc(NCCN4CCOCC4)c23)cc1`, “inactive”.
With `NC(=S)NN=Cc1ccc(OC(=O)COc2cc(Cl)c(Cl)cc2Cl)cn1`, the IC50 result is “inactive”.
With `Cc1ccc(O)c(Nc2ncnc3ccc([N+](=O)[O-])cc23)c1`, the IC50 entry is “inactive”.
The same measure for `Nc1nc(CCl)nc(Nc2cccc3ccccc23)n1`: “inactive”.
Take `C=CCNc1ncnc2ccc(Br)cc12`: the half-inhibitory concentration (IC50) was 6.79 µM.
`c1cnc2ccc(-n3ccnc3)cc2c1`: the IC50 is > 35.9 µM (inactive).
In the case of `CC(C)n1c(SCC(=O)Nc2nc3c(s2)CCCC3)nc2c1c(=O)n(C)c(=O)n2C`, the IC50 entry is “inactive”.
Under `CC(=O)C1=C(C)NC2=C(C(=O)CC(C)(C)C2)C1C` (stereo unspecified) stands “inactive”; under `Cc1noc(/C=C/c2ccco2)c1S(=O)(=O)N1CCC(C(=O)Nc2ccc(Cl)cn2)CC1`, > 35.9 µM (inactive).

As usually defined, the IC50 is the concentration at which inhibition is half-maximal.
